The record followed here is publication PMC7391726, “Fatty acid mimetic PBI-4547 restores metabolic homeostasis via GPR84 in mice with non-alcoholic fatty liver disease” (Scientific Reports, 2020).

One assay has as its target T1, GPR120 (Homo sapiens, UniProt Q5NUL3).
T1 construct: expressed in transfected cells; host or cells: HEK293
T1 sequence (Q5NUL3 1-361): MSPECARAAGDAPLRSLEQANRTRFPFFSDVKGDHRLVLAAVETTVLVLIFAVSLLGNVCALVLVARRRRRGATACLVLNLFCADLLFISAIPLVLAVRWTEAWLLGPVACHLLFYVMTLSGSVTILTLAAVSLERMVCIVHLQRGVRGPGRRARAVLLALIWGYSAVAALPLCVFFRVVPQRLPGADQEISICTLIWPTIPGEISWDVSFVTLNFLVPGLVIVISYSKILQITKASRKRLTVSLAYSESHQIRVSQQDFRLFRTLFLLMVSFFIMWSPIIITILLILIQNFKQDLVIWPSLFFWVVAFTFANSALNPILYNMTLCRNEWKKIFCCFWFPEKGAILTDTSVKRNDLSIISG
Briefly: BRET β-arrestin-2 recruitment to GPR120-GFP10 in HEK293 cells. It is filed as cell-based. The following applies: Rluc8-β-arrestin-2 / GPR120-GFP10. The method, then: Figure 1 PBI-4547 binding and activity on GPR84, GPR40, GPR120, and PPAR receptors. (A) Chemical structure of PBI-4547. (B) Gi pathway activation was monitored in HEK293 cells transfected with GPR84 and the Gαi2 activation biosensor. Cells were co-treated with […] sodium decanoate and increasing concentrations of PBI-4547, and BRET variation compared with vehicle was measured. (C) β-arrestin 2 recruitment to activated GPR120 receptor was monitored in HEK293 cells transfected with RLuc8-β-arrestin 2 and GPR120-GFP10. (D) Cells transfected with GPR40 and Gαq or Gαi2 activation biosensor were exposed to increasing concentrations of PBI-4547 or to 500 µM of sodium decanoate, and BRET variation compared with vehicle was measured. Cells were exposed to increasing concentrations of PBI-4547 or to 100 µM of GW9508, and BRET variation compared with vehicle was measured. […] Data in (B–D) are expressed as means ± SEM of 4–5 experiments; data in (E,F) are from a representative experiment from a total of 3 to 4 independent experiments. […]
BRET measurements in transiently transfected HEK293 cells were performed as previously described. Ligands were incubated with cells at room temperature for 10 min (G protein biosensors) or 25 min (β-arrestin/GPR120) before collecting BRET[2] readings between Rluc8 and GFP10.

The subject of a further assay is HepG2 hepatocytes. Briefly: Mitochondrial respiration (Seahorse OCR) in HepG2 hepatocytes. The class given is cell-based. The note with it: HepG2, 24 h treatment. The method, then: Moreover, hepatic expression of several genes involved in glucose metabolism including Pklr (pyruvate kinase L/R), G6pc (glucose-6-phosphatase, catalytic) and Slc2a2 (Glut2) was normalized by PBI-4547 (Fig. 4B). […] To test this hypothesis, mitochondrial respiration in HepG2 hepatocytes was measured (Fig. 4C). […] However, it did decrease maximal respiration and ATP production, in agreement with the metabolomics results.
Figure 4 Effects of PBI-4547 on glucose and FA metabolism in liver. (A) Relative gene expression levels of glucose and FA-related metabolism in liver from STD, HFD and HFD + PBI-4547 mice. Data are presented as geometric mean ± SEM (n ≥ 6 per group, one-way ANOVA with Dunnett’s multicomparison test vs HFD group). (B) 1H-NMR metabolic profiling in liver tissues. (C) Oxygen Consumption Rate (OCR) and Extracellular Acidifcation Rate (ECAR) in HepG2 hepatocytes. Measurements of basal respiration, maximal respiration, ATP production and proton leak in HepG2 hepatocytes treated or not with PBI-4547. (D) Oxidation rate of ^14C-palmitate in HepG2 hepatocytes treated or not with PBI-4547. Data are presented as mean ± SEM (n = 3, Student t test Ctrl vs PBI-4547). See also Fig. S2.
Oxygen consumption rate (OCR) and extracellular acidification rate (ECAR) were measured with a Seahorse XF96 as per manufacturer’s protocol (Agilent). Briefly, 8 × 10^4 HepG2 cells were plated onto Seahorse XF96 96-well plates for 24 h prior to stimulation. The next day, cells were treated with PBI-4547 or with vehicle control for 24 h. Cells were subjected to a mitochondrial stress test with serial injections of Oligomycin (1 μM; ATPase inhibitor), FCCP (1 μM; mitochondrial uncoupler) and Rotenenone/Antimycin A (1 μM; complex I/III inhibitor).

Molecules are shown by their SMILES.

The term EC50 denotes the concentration that produces a half-maximal response. Read a low EC50 as higher potency in that assay.

In turn, `CCCCCc1cc(CCCCC)cc(CC(=O)[O-])c1.[Na+]` [PBI-4547, 2-[3,5-dipentylphenyl]acetate sodium salt] displayed a concentration giving a half-maximal response (EC50) on GPR120 of 48 µM. In addition, in the assay on HepG2 hepatocytes, the ATP production result was “decrease”, the “basal oxygen consumption rate (OCR)” value is “did not affect”, the maximal respiration result was “decrease” and the mitochondrial proton leak result was “significantly increased”.
